From the NIST ThermoML archive (doi:10.1021/je025649t)

Key:
[1] = refractive index (Na D-line) (dimensionless); xn = mol fraction of the nth substance listed; details: 298.15 K, 101 kPa, Liquid, refractometer
[2] = heat capacity at constant pressure per volume; xn = mol fraction of the nth substance listed; details: 298.15 K, 101 kPa, Liquid, Flow calorimetry
[3] = excess molar enthalpy (molar enthalpy of mixing); xn = mol fraction of the nth substance listed; details: 298.15 K, 101 kPa, Liquid, Flow calorimetry
[4] = xn = mol fraction of the nth substance listed; details: 298.15 K, 101 kPa, Liquid, Vibrating tube method

O=C1CCCC1 [cyclopentanone] + C1CCOCC1
Details | excess molar enthalpy [kcal/mol] | heat capacity [J/K/m3] | mass density [kg/m3] | refractive index
[1], x2 = 0.0723 | – | – | – | 1.4337
[1], x2 = 0.153 | – | – | – | 1.43231
[1], x2 = 0.2311 | – | – | – | 1.43098
[1], x2 = 0.3083 | – | – | – | 1.42967
[1], x2 = 0.3514 | – | – | – | 1.42895
[1], x2 = 0.3917 | – | – | – | 1.42828
[1], x2 = 0.4314 | – | – | – | 1.42762
[1], x2 = 0.4691 | – | – | – | 1.427
[1], x2 = 0.5026 | – | – | – | 1.42645
[1], x2 = 0.5485 | – | – | – | 1.42571
[1], x2 = 0.5911 | – | – | – | 1.42502
[1], x2 = 0.6215 | – | – | – | 1.42454
[1], x2 = 0.6618 | – | – | – | 1.4239
[1], x2 = 0.7097 | – | – | – | 1.42314
[1], x2 = 0.7897 | – | – | – | 1.42189
[1], x2 = 0.8648 | – | – | – | 1.42073
[1], x2 = 0.9456 | – | – | – | 1.41948
[2], x2 = 0.0715 | – | 1697900 | – | –
[2], x2 = 0.1485 | – | 1683000 | – | –
[2], x2 = 0.2279 | – | 1667700 | – | –
[2], x2 = 0.3826 | – | 1638300 | – | –
[2], x2 = 0.4613 | – | 1623300 | – | –
[2], x2 = 0.5422 | – | 1608000 | – | –
[2], x2 = 0.6258 | – | 1592400 | – | –
[2], x2 = 0.6965 | – | 1579400 | – | –
[2], x2 = 0.777 | – | 1564600 | – | –
[2], x2 = 0.8588 | – | 1549700 | – | –
[2], x2 = 0.9378 | – | 1535300 | – | –
[3], x2 = 0.1 | 0.0127 | – | – | –
[3], x2 = 0.15 | 0.0181 | – | – | –
[3], x2 = 0.2 | 0.023 | – | – | –
[3], x2 = 0.25 | 0.0271 | – | – | –
[3], x2 = 0.3 | 0.0304 | – | – | –
[3], x2 = 0.35 | 0.0331 | – | – | –
[3], x2 = 0.4 | 0.0353 | – | – | –
[3], x2 = 0.45 | 0.0368 | – | – | –
[3], x2 = 0.5 | 0.0377 | – | – | –
[3], x2 = 0.55 | 0.0378 | – | – | –
[3], x2 = 0.6 | 0.0371 | – | – | –
[3], x2 = 0.65 | 0.0357 | – | – | –
[3], x2 = 0.7 | 0.0336 | – | – | –
[3], x2 = 0.75 | 0.0306 | – | – | –
[3], x2 = 0.8 | 0.0267 | – | – | –
[3], x2 = 0.85 | 0.0219 | – | – | –
[3], x2 = 0.9 | 0.0158 | – | – | –
[4], x2 = 0.0621 | – | – | 939.88 | –
[4], x2 = 0.1532 | – | – | 933.66 | –
[4], x2 = 0.2354 | – | – | 928.1 | –
[4], x2 = 0.309 | – | – | 923.12 | –
[4], x2 = 0.3167 | – | – | 922.64 | –
[4], x2 = 0.346 | – | – | 920.67 | –
[4], x2 = 0.3516 | – | – | 920.32 | –
[4], x2 = 0.3936 | – | – | 917.52 | –
[4], x2 = 0.3997 | – | – | 917.16 | –
[4], x2 = 0.4297 | – | – | 915.15 | –
[4], x2 = 0.4312 | – | – | 915.07 | –
[4], x2 = 0.4661 | – | – | 912.74 | –
[4], x2 = 0.4676 | – | – | 912.7 | –
[4], x2 = 0.5105 | – | – | 909.9 | –
[4], x2 = 0.5187 | – | – | 909.32 | –
[4], x2 = 0.5466 | – | – | 907.55 | –
[4], x2 = 0.5498 | – | – | 907.3 | –
[4], x2 = 0.5959 | – | – | 904.37 | –
[4], x2 = 0.6289 | – | – | 902.25 | –
[4], x2 = 0.6335 | – | – | 901.96 | –
[4], x2 = 0.6618 | – | – | 900.16 | –
[4], x2 = 0.708 | – | – | 897.22 | –
[4], x2 = 0.7941 | – | – | 891.79 | –
[4], x2 = 0.8569 | – | – | 887.85 | –
[4], x2 = 0.9351 | – | – | 882.98 | –
[4], x2 = 0.939 | – | – | 882.71 | –
